# Results as given in patent publication US10761087B2, “Choroidal neovascularization suppressor or drusen formation suppressor, and method for assessing or screening for same” (Link Genomics, Inc., priority 2015, dated 2020).
# “Also recorded” adds a separate entry of the source. Read-outs that look alike come from different tables or passages of the source.
# What was measured:
# [1] = system: EMT markers (mesenchymal markers, ECM) in RPE cells (ARPE-19); test: Change in expression of EMT markers (real-time PCR) in EMT-induced RPE cells; format: cell-based, human
# Protocol: RPE cells (ARPE-19) were seeded on a plate, and incubated for 5 days at 37° C. For the RPE cells, EMT was induced in the conditions described in Test example 1-1, and respective compounds (oxaprozin, epalrestat, zafirlukast, amlexanox, zaltoprofen) were added simultaneously, and the cells were collected after 48 hours from induction of EMT. As a control, a sample to which a compound to be assessed (test drug) is not added was used. The collected cells were washed with PBS, and 350 μL of an RLT buffer was added to prepare a lysate for RNA extraction. The respective compounds were used in the following concentrations. Oxaprozin: 300 μM, epalrestat: 30 μM, zafirlukast: 3 μM, amlexanox: 30 μM, zaltoprofen: 30 μM. Total RNA was extracted from the lysate using an RNeasy Micro kit (QIAGEN, #74004), and from 2 μg of the obtained RNA, cDNA was prepared using a SuperScript III First-Strand Synthesis SuperMix for qRT-PCR (Invitrogen, #11752-250). Using 50 ng of the obtained cDNA as a template, a real-time PCR (ABI Prism 7500 Sequence Detection System) was conducted according to the manufacturer's protocol, and expression of mRNA of each gene was quantified. Specific primers for respective genes were purchased from Invitrogen. Ct (Threshold Cycle) value of each gene was calculated as a percentage to a non-treated sample after normalization by endogenous control.
# Five compounds (flufenamic acid aluminum (addition concentration: 28 μM (Cmax)), mefenamic acid (addition concentration: 39 μm (Cmax)), sulindac (addition concentration: 100 μM), tiaprofenic acid (addition concentration: 1000 μM), and seratrodast (addition concentration: 31 μM (Cmax))) were assessed for change in expression of EMT markers in the same manner as in Test example 2-1. The results are shown in FIG. 8 to FIG. 12, respectively.
# (§1) RPE cells (ARPE-19) were seeded on a plate, and incubated for 5 days at 37° C. […] Each compound was added in a concentration of Cmax, ½ of Cmax or ¼ of Cmax. As a control, a sample to which a compound to be assessed (test drug) is not added was used. The collected cells were washed with PBS, and 350 μL of an RLT buffer was added to prepare a lysate for RNA extraction. Total RNA was extracted from the lysate using an RNeasy Micro kit (QIAGEN, #74004), and from 2 μg of the obtained RNA, cDNA was prepared using a SuperScript III First-Strand Synthesis SuperMix for qRT-PCR (Invitrogen, #11752-250). Using 50 ng of the obtained cDNA as a template, a real-time PCR (ABI Prism 7500 Sequence Detection System) was conducted according to the manufacturer's protocol, and expression of mRNA of each gene was quantified. Specific primers for respective genes were purchased from Invitrogen. Ct (Threshold Cycle) value of each gene was calculated as a percentage to a non-treated sample after normalization by endogenous control. For each result, a significant test (Student t test) was conducted, and when p<0.05, the result was marked with “*”, and when p<0.01, the result was marked with “**”.
# RPE cells (ARPE-19) were seeded on a plate, and incubated for 5 days at 37° C. For the RPE cells, EMT was induced in the conditions described in Test example 5-1, and the five representative compounds (oxaprozin, epalrestat, zafirlukast, amlexanox, zaltoprofen) were added simultaneously, and the cells were collected after 48 hours from induction of EMT. As a control, a sample to which a compound to be assessed (test drug) is not added was used. The collected cells were washed with PBS, and 350 μL of an RLT buffer was added to prepare a lysate for RNA extraction. Total RNA was extracted from the lysate using an RNeasy Micro kit (QIAGEN, # 74004), and from 2 μg of the obtained RNA, cDNA was prepared using a SuperScript III First-Strand Synthesis SuperMix for qRT-PCR (Invitrogen, # 11752-250). […]
# [2] = cited from earlier work
# RPE cells (ARPE-19) = test: Focus (drusen-like structure) formation suppression in EMT induction model of RPE cells; format: cell-based, human; details: Homo sapiens, RPE; Table 2; same manner as Test example 6-1; read-out: IC50 (Focus formation suppressing rate, EMT suppressive effect)
# Protocol: RPE cells (ARPE-19) were seeded on a plate, and incubated for 5 days at 37° C. […] As a control of EMT induction, a sample to which a compound to be assessed (test drug) is not added was used. After 48 hours from EMT induction, the cells were fixed by treating with a 4% paraformaldehyde solution for 30 minutes at room temperature, and then washed three times with PBS. The cells were treated with a 0.2% Triton-X/PBS solution for 5 minutes, and washed three times with PBS. […] The fluorescent-stained cells were imaged by using an Image Express Micro (available from Molecular Devices), and digitized by using a MetaXpress2.0 (available from Molecular Devices). By analyzing the degree of formation of Focus (Focus level) from the numerical data, a Focus formation suppressing rate was calculated according to the following Formula 1 on the basis of the numerical value at the time of no addition of a compound, and the EMT suppressive effect in each compound was verified. The degree of formation of Focus (Focus level) was determined according to the number and the volume of Focus as indexes.
# IC50 in the table was calculated using the following Formula 2.
# A: Higher concentration sandwiching 50%
# B: Lower concentration sandwiching 50%
# C: Inhibition rate at lower concentration sandwiching 50%
# D: Inhibition rate at higher concentration sandwiching 50%
# RPE cells (ARPE-19) were seeded on a plate, and incubated for 5 days at 37° C. […] As a control of EMT induction, a sample to which a compound to be assessed (test drug) is not added was used. The cells after observation were fixed by treating with a 4% paraformaldehyde solution for 30 minutes at room temperature, and then washed three times with PBS. The cells were treated with a 0.2% Triton-X/PBS solution for 5 minutes, and washed three times with PBS. […] The fluorescent-stained cells were imaged by using an Image Express Micro (available from Molecular Devices), and digitized by using a MetaXpress2.0 (available from Molecular Devices). By analyzing the degree of formation of Focus from the numerical data, a Focus formation suppressing rate was calculated on the basis of the case without addition of a compound and the case without EMT induction, and the EMT suppressive effect in each compound was verified. […] After washing three times with methanol, the cells were dried for 3 hours at room temperature. The dried cells were observed under a microscope.
# VEGF = test: Change in expression of VEGF mRNA (real-time PCR) in EMT-induced RPE cells; format: cell-based, human; details: EMT-induced ARPE-19, 48 hours, compound at Cmax, ½ of Cmax or ¼ of Cmax
# Protocol: as §1
# The results are shown in FIG. 16 or FIG. 17, respectively.
# The VEGF suppressive effect was assessed using the cell model as described above in the same manner as in Test example 2-3. The results are shown in FIG. 18 to FIG. 20, respectively.
structure (smiles),measurement,setting,value
O=C(O)c1ccccc1Nc1cccc(C(F)(F)F)c1 [flufenamic acid aluminum],"Enhancement of expression of Fibronectin, Snail and vimentin (mesenchymal markers)","[1]; EMT-induced ARPE-19, 48 hours, compound at Cmax, ½ of Cmax or ¼ of Cmax",suppressed enhancement of expression of these in a concentration dependent manner
same,Expression of EMT markers at the time of EMT induction (FIG. 8 to FIG. 12),"[1]; flufenamic acid aluminum 28 μM, mefenamic acid 39 μm, sulindac 100 μM, tiaprofenic acid 1000 μM, seratrodast 31 μM",significantly suppress expression of EMT markers at the time of EMT induction; also recorded: lower expression of EMT markers at the time of EMT induction
same,Cmax,"[2]; Pharmaceutical Interview Form, single-dose administration, read-out: Cmax",27.9 µM
same,Cmax,"[2]; quoted in Test examples 2-3, 2-4, 2-5, read-out: Cmax (as quoted in the VEGF test examples)",27.9 µM
same,IC50,RPE cells (ARPE-19),4.4 µM
same,Enhancement of VEGF mRNA expression by EMT induction,VEGF,suppress enhancement of mRNA expression of VEGF
same,Enhancement of VEGF mRNA expression by EMT induction,VEGF; listed as Flufenamic acid aluminum,suppressed enhancement of VEGF expression in a concentration dependent manner
